Here are results for 5 molecules from US6489341B1 (Sepracor Inc., priority 1999, dated 2002).

In experiment [1] the target is non-selective α1 receptor from rat cerebral cortex. Description: Binding affinity at non-selective α1 receptor. The following applies: for Ki: calculated inhibition constant, in parentheses; for IC50: concentration required to inhibit 50% specific binding.
The target of experiment [2] is T1, human recombinant dopamine D2 receptor (Homo sapiens, UniProt P14416).
T1 construct: expressed in transfected cells
Description: Binding affinity at dopamine D2 receptor. The following applies: for Ki: calculated inhibition constant, in parentheses; for IC50: concentration required to inhibit 50% specific binding.

The target in experiment [3] is T2, human recombinant dopamine D4 receptor (Homo sapiens, UniProt P21917).
T2 construct: expressed in transfected cells
T2 sequence (P21917 1-419): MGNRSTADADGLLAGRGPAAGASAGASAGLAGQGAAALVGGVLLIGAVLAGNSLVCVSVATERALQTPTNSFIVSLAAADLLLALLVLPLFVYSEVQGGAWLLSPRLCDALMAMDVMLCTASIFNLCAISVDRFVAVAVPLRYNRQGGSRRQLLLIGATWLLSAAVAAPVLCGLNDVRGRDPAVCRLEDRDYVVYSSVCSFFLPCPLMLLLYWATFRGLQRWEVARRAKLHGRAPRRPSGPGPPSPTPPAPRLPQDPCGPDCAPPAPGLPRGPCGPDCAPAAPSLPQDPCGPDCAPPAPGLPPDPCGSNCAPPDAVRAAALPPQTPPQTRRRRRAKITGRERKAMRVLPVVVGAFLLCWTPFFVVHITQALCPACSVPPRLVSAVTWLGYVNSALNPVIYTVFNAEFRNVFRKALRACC
As to the kind of experiment: Binding affinity at dopamine D4 receptor. The conditions noted are these: for Ki: calculated inhibition constant, in parentheses; for IC50: concentration required to inhibit 50% specific binding.

The target in experiment [4] is T3, human recombinant serotonin 5-HT2A receptor (Homo sapiens, UniProt P28223).
T3 construct: expressed in transfected cells
As to the kind of experiment: Binding affinity at serotonin 5-HT2A receptor. The following applies: for selectivity for 5-HT2A receptors versus D2 receptors (in words): conclusion from Table 1; for 5-HT2A Selectivity (D2/5-HT2A): ratio of D2 to 5-HT2A IC50.

[5] abbreviates: calculated inhibition constant, in parentheses, human recombinant, read-out: Ki by Receptor 5-HT2A.
Where [6] appears, read: concentration required to inhibit 50% specific binding, human recombinant, read-out: IC50 by Receptor 5-HT2A.

Where two headings read alike, the source gives them in different places.

T1 sequence (P14416 whole entry): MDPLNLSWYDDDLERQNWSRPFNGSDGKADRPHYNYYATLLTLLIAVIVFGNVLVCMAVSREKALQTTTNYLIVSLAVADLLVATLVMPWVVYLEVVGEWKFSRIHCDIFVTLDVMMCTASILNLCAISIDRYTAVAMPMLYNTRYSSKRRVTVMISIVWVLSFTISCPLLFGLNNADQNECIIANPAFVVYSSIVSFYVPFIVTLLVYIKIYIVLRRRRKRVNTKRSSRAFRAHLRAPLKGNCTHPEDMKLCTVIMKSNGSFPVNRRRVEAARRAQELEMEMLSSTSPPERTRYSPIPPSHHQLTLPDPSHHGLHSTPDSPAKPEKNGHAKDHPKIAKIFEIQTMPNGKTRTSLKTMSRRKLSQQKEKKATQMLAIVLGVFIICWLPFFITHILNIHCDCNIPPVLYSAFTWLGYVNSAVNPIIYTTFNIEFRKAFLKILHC
T3 sequence (P28223 whole entry): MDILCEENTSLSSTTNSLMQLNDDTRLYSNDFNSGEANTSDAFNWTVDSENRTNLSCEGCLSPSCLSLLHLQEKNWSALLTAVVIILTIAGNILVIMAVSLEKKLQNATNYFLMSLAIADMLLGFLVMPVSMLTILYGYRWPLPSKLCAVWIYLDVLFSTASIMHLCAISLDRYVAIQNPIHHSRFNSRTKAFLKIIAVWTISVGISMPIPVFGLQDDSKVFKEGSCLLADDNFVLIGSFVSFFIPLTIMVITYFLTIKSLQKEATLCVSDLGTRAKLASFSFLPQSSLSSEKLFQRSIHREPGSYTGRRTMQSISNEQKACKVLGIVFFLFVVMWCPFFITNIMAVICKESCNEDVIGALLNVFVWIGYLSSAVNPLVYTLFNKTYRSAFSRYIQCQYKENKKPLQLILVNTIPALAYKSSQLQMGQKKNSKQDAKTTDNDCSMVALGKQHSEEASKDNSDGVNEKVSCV

Turning to `COc1cc2nc(N3CCN(C(=O)c4ccco4)CC3)nc(N)c2cc1OC` [Prazosin, reference compound], in experiment [1], the inhibitory constant (Ki) was 0.087 nM and the IC50 came to 0.32 nM.
As for `O=C1NCCN1CCN1CCC(c2cn(-c3ccc(F)cc3)c3ccc(Cl)cc23)CC1` [Sertindole, 1-[2-[4-[5-chloro-1-(4-fluorophenyl)-1H-indol-3-yl]-1-piperidinyl]ethyl]-2-imidazolidinone, reference compound], in experiment [1], the inhibition constant Ki was 1.7 nM and the IC50 came to 6.2 nM.
As for `Fc1ccc(-n2cc(C3=CCNCC3)c3cc(Cl)ccc32)cc1` [Nor, 5-chloro-1-(4-fluorophenyl)-3-(1,2,3 6-tetrahydropvridin-4-yl)indole], the Ki in experiment [2] is 20 nM; in experiment [3], 333 nM; in experiment [4] (setting [5]) it was 11 nM; in experiment [1], 13 nM. The IC50 in experiment [2] came out at 78 nM; in experiment [3], 1090 nM; in experiment [4] (setting [6]), 17 nM; in experiment [1] it was 49 nM. Also, the “selectivity for 5-HT2A receptors versus D2 receptors (in words)” value in experiment [4] is listed as “greater selectivity for 5-HT2A receptors than for D2 receptors”. Also, in experiment [4], the “5-HT2A Selectivity (D2/5-HT2A)” value is listed as 4.6.
As for `O=C1CNC(=O)N1CCN1CCC(c2cn(-c3ccc(F)cc3)c3ccc(Cl)cc23)CC1` [5-Oxo, 1-[2-[4-[5-chloro-1-(4-fluorophenyl)-1H-indol-3-yl]piperidin-1-yl]ethyl]midazolidin-2,5-dione], the Ki in experiment [2] is 11 nM; in experiment [3], 96 nM; in experiment [4] (setting [5]), 11 nM; in experiment [1], 3.3 nM. The IC50 is 44 nM in experiment [2], 315 nM in experiment [3], 18 nM in experiment [4] (setting [6]) and 12 nM in experiment [1]. Moreover, the “selectivity for 5-HT2A receptors versus D2 receptors (in words)” value in experiment [4] is “greater selectivity for 5-HT2A receptors than for D2 receptors”. In addition, the “5-HT2A Selectivity (D2/5-HT2A)” value in experiment [4] came out at 2.4.
As for `Fc1ccc(-n2cc(C3=CCNCC3)c3cc(Cl)ccc32)cc1` [Dehydro-Nor], the Ki was 8.8 nM in experiment [2], 116 nM in experiment [3], 16 nM in experiment [4] and 28 nM in experiment [1]. The half-inhibitory concentration (IC50) in experiment [2] amounted to 34 nM; in experiment [3] it was 379 nM; in experiment [4], 25 nM; in experiment [1], 102 nM. In addition, the “5-HT2A Selectivity (D2/5-HT2A)” value in experiment [4] was determined as 1.4.

As usually defined, the Ki is the equilibrium dissociation constant of an inhibitor or competing ligand from its target. The term IC50 denotes the concentration needed to halve the response being measured.
